Laboratory results reported in PMC6751184, “Heme and hemoglobin utilization by Mycobacterium tuberculosis” (Nature Communications, 2019).

Target: DppA (Rv3666c), substrate-binding protein of the Dpp transporter (Mycobacterium tuberculosis, UniProt I6X811)
Assay: […]; also difference absorption spectroscopy

Chain of DppA (Rv3666c), substrate-binding protein of the Dpp transporter (I6X811 entry or part of it): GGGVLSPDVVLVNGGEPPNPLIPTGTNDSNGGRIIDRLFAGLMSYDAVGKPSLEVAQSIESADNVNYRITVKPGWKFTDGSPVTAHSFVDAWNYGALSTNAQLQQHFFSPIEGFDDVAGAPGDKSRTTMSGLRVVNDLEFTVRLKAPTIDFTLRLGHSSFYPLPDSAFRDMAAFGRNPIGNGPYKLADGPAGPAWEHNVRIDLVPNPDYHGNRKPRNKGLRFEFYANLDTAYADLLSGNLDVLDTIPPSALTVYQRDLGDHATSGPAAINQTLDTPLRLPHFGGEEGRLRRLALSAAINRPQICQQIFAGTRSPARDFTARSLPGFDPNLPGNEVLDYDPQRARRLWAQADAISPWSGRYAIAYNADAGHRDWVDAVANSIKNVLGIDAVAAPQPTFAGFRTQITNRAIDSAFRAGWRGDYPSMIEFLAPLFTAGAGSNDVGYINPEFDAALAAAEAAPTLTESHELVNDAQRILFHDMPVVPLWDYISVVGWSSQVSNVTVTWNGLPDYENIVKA

## C=CC1=C(C)C2=Cc3c(C=C)c(C)c4[n]3[Fe]([Cl])[n]3c(c(C)c(CCC(=O)O)c3=CC3=NC(=C4)C(C)=C3CCC(=O)O)=CC1=N2 [hemin]
  Kd: ~1500 nM
